Measured values taken from publication PMC6158189, “A pharmacological probe identifies cystathionine β-synthase as a new negative regulator for ferroptosis” (Cell Death & Disease, 2018).
Entries after “also recorded” stand apart in the source; their conditions may differ.

Target: T1, hCBS (Homo sapiens, UniProt P35520)
T1 construct: GST (N); made in house; host or cells: E. coli BL21
T1 sequence (P35520 1-551): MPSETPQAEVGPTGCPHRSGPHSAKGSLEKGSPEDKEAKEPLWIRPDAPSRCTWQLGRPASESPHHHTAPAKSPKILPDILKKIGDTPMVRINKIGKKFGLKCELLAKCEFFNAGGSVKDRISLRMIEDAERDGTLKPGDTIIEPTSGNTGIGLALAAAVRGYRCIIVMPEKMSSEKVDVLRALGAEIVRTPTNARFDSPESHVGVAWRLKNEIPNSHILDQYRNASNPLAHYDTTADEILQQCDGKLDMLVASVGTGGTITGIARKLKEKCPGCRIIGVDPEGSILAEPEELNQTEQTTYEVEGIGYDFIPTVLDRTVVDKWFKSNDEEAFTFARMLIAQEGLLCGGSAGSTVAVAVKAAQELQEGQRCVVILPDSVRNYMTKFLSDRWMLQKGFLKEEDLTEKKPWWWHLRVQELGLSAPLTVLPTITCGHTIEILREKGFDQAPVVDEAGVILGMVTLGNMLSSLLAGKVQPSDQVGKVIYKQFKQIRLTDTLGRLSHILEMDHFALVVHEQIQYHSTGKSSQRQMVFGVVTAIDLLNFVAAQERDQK
Assay: rapid dilution reversibility experiment
Format: biochemical
Settings: 10 μM, 40 min pre-incubation with 20 μM hCBS, 200-fold dilution
Experimental: Figure S2. The mode of action of CH004 in inhibiting hCBS. […] After incubation with DMSO or CH004 at 10 μM for 40 min, hCBS (20 μM) was diluted 200-fold and the activity was measured according to the standard assay protocol (Materials and Methods). The data are presented as percentages of control (CTR; DMSO, 100%) and shown as means ± SDs (n = 5). The effects of 0.05 and 10 μM CH004 on hCBS (100 nM) without pre-incubation were defined as positive control (PC) and negative control (NC), respectively. (B) Inhibition of hCBS by CH004 as a function of PLP concentration with Cys (20 mM) together with Hcys (10 mM) as substrates (non-competitive inhibition constant αKi=15.2 ± 4.9 μM). (C) Inhibition of hCBS by CH004 as a function of Cys concentration in the presence of 100 μM PLP and the absence of Hcys (mixed inhibition constant αKi=26.4 ± 8 μM). (D) Inhibition of hCBS by CH004 as a function of Hcys concentration in the presence of 20 mM Cys and 100 μM PLP (mixed inhibition constant αKi’=7.2 ± 1.6 μM). Each point in the Lineweaver-Burk plots represents the means of triplicate. The αKi or αKi’ values were calculated by using the non-linear fitting method for enzyme kinetics in GraphPad Prism 5. (E) Surface Plasmon Resonance assays analysis of the binding of CH004 to hCBS. […] Dissociation constants for CH004 (KD) were calculated by using Biacore evaluation software (Materials and Methods).

Q: How did the “reversibility of binding to hCBS” value turn out when `Cn1nc(Cc2ccccc2)nc2c(=O)n(C)c(=O)nc1-2` [CH004, 3-benzyl-1,6-dimethylpyrimido[5,4-e][1,2,4]triazine-5,7(1H,6H)-dione] was run?
A: The value was “binds reversibly; also recorded: reversibly binds”.
